Test results as given in paper PMC12281485, “High-Throughput Screening of Potent Drug-like Molecules Targeting 17β-HSD10 for the Treatment of Alzheimer’s Disease and Cancer” (ACS Chemical Biology, 2025).
Read-outs that look alike come from different tables or passages of the source.

Key:
[1] = test system: HEK293 cells overexpressing 17β-HSD10; test: LDH cytotoxicity assay; assay type: cell-based, human; conditions: 50 μM compound, 24 h, n = 3 ± SD
Experimental: Cell cytotoxicity was assessed via the measurement of LDH leakage into the culture medium using a commercially available kit from Pierce (Thermo Scientific cat no. 88953). This was carried out in accordance with the kit guidelines, with the activity of LDH being calculated from the change in absorbance at […]. Human embryonic kidney (HEK293) cells overexpressing 17β-HSD10 were cultured in phenol-red free media (10% FBS, 1 mM sodium pyruvate, 100 units penicillin, 0.1 mg mL^–1 streptomycin, and 2 mM L-glutamine) and seeded at a density of 10,000 cells per well (100 μL, 96-well plates). […] Treated cells were then incubated at 37 °C and CO2 (5%) for 24 h before the LDH assay was performed as per the manufacturer’s instructions. Spontaneous control (water) and maximum control (lysis buffer) were used in accordance with the kit guide. Absorbance was measured at 490 and 680 nm using the SpectraMaxM2e spectrophotometer. The measured LDH activity was used to calculate %cytotoxicity using the following equation (eq ): %cytotoxicity=(compoundtreatedLDHactivity−spontaneousLDHactivity)/(maximumLDHactivity−spontaneousLDHactivity)×100 1

[2] = Alamar Blue cell viability assay; assay type: cell-based, human; conditions: human, HEK293 cells overexpressing 17β-HSD10, 50 μM compound, n = 3 ± SD, read-out: Alamar Blue % viability (50 μM dose)
Experimental: Cell viability was assessed via fluorescence change using the commercially available Alamar Blue from ThermoFisher. HEK293 cells overexpressing 17β-HSD10 were cultured in phenol-red free media (10% FBS, 1 mM sodium pyruvate, 100 units penicillin, 0.1 mg mL^–1 streptomycin, and 2 mM L-glutamine) and seeded at a density of 10,000 cells per well (100 μL, 96-well plates). […] Treated cells were then incubated at 37 °C and CO2 (5%) for 24 h before the assay was performed as per the manufacturer’s instructions. Fluorescence was measured at 530 nm excitation and 590 nm emission using the SpectraMaxM2e spectrophotometer.

17β-HSD10 [3] = biological target: T1, 17β-HSD10 (Homo sapiens, UniProt Q99714); test: 17β-HSD10 enzyme inhibition dose-response assay (acetoacetyl-CoA/NADH, absorbance 340 nm); assay type: biochemical
T1 construct: Recombinant 17β-HSD10 was expressed and purified as previously described in Aitken et al; made in house
T1 sequence (Q99714 1-261): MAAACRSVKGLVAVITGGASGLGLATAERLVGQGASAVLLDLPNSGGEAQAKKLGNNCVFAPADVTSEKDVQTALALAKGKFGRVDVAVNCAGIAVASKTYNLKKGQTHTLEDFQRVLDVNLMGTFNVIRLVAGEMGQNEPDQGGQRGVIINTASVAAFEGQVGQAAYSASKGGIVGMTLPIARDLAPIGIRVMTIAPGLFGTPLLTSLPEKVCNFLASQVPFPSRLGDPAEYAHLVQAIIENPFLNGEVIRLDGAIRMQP
Experimental: Recombinant 17β-HSD10 was expressed and purified as previously described in Aitken et al.
17β-HSD10 screening was carried out as described in Aitken et al. with the exception that experiments were also conducted in clear-bottom 1536-well low-volume microplates (Corning) with a final assay volume of 20 μL. For primary screening, an endpoint assay format was adopted, in which an Echo acoustic liquid dispenser (Labcyte) was used to transfer 20 nL of either DMSO control […] or test compounds (10 μM) to the assay plate. 10 μL of the 17β-HSD10 enzyme in an assay buffer (2.5 nM) was then added to the plates using the Preddator liquid handling robot (Redd and Whyte), and plates were incubated at RT for 15 min. 10 μL of the substrate mixture (100 μM acetoacetyl-CoA and 100 μM NADH) was added with the Preddator. To start the reaction, the plates were left to incubate for 35 min at RT before the absorbance at 340 nm was read on the EnVision plate reader (PerkinElmer). For the kinetic assay format and dose-response follow-up experiments, the same protocol was adopted, except that the absorbance at 340 nm was monitored constantly for 45 min from immediately after the reaction was started.

17β-HSD10 [4] = biological target: T1, 17β-HSD10; test: (−)-CHANA fluorescence assay of cellular 17β-HSD10 activity; assay type: cell-based; conditions: read-out: cellular 17β-HSD10 activity mean pEC50 (converted)
Experimental: (−)–CHANA ((−)-cyclohexenyl amino naphthalene alcohol) is a fluorogenic probe that can be used to detect 17β-HSD10 activity in living cells. HEK293 17β-HSD10 cells were seeded at a density of 10,000 cells per well (100 μL, 96-well black plates) in phenol-red free media (10% FBS, 1 mM sodium pyruvate, 100 units penicillin, 0.1 mg mL^–1 streptomycin, and 2 mM L-glutamine). […] The fluorogenic probe (−)–CHANA was then added to each well to give a final assay concentration of 20 μM. Fluorescence was immediately measured using the FLUOstar Optima microplate reader (excitation = 380 nm, emission = 520 nm, orbital averaging = 3 mm), and the initial reaction was monitored for 3–4 h. EC50 was calculated from the control-subtracted triplicates using nonlinear regression (four parameters) of GraphPad Prism 5 software. The Final EC50 and SEM values were obtained as a mean of at least three independent measurements.

[5] = Mouse hepatocyte metabolic stability; assay type: in vitro ADME; set-up: k (elimination constant): unit not given here; conditions: mouse hepatocytes
Experimental: Hepatocyte isolation, hepatocyte incubations for metabolic stability, plasma protein binding (PPB) experiments, and LC/MS sample analysis were carried out as previously described in Brandon et al. and MacLeod et al.
XLfit (IDBS, UK) was used to calculate the exponential decay and the rate constant (k) from the ratio of the peak area of the test compound to the internal standard at each time point. […] Verapamil, 7-ethoxycoumarin, 7-hydroxycoumarin, and phthalazine were used as positive controls to confirm acceptable assay performance. […] Values were transferred to RStudio v1.3.1093 (Posit, Boston, MA, USA) for generation of scatter plots and heatmaps using the ggplot2 package (Wickham 2016).

[6] = Table 3, chemically modified singleton hit compound series, read-out: 17β-HSD10 pIC50 (converted)
[7] = Table 4, 17β-HSD10 overexpressing HEK293 cells, CHANA fluorescence assay
[8] = Table 2, chemically modified cluster hit compounds, read-out: 17β-HSD10 pIC50 (converted)
[9] = Table 1, primary screening assay, resynthesized HTS hits, read-out: 17β-HSD10 pIC50 (converted)

| SMILES | LDH % toxicity (50 μM dose) [1] | viability at 24 h, 50 μM [2] | IC50 (17β-HSD10 [3]; [6]) | EC50 (17β-HSD10 [4]; [7]) | IC50 (17β-HSD10 [3]; [8]) | other results |
| --- | --- | --- | --- | --- | --- | --- |
| COc1cccc(-c2ccccc2C2CCCN2C(=O)c2sccc2Cl)c1 (racemic) [ESC1002432] | 4.24 ± 0.02% | 80.61 ± 0.78% | – | – | – | – |
| O=C(c1sccc1Cl)N1CCCC1c1ccccc1-c1cc(O)cc(F)c1 (racemic) [ESC1002776] | 20.00 ± 0.11% | 65.6 ± 1.67% | 40.7 nM | 228 nM | – | – |
| Cc1ccc(C(=O)N(CC(C)C)c2cccc(N(C)Cc3cnc[nH]3)c2)cc1 [ESC1002032] | – | – | – | – | 251 nM | – |
| CC(C)CN(C(=O)c1ccncc1)c1cccc(N(C)Cc2cnc[nH]2)c1 [ESC1002034] | – | – | – | – | – | IC50 (17β-HSD10 [3]; [9]): 1580 nM |
| COc1cccc(C(=O)N(CC(C)C)c2cccc(N(C)Cc3cnc[nH]3)c2)c1 [ESC1002038] | – | – | – | – | – | IC50 (17β-HSD10 [3]; [9]): 2000 nM |
| CC(C)CN(C(=O)c1ccc(Cl)cc1F)c1cccc(N(C)Cc2cnc[nH]2)c1 [ESC1002042] | – | – | – | – | 316 nM | LipE (17β-HSD10 [3]; Table 1, lipophilic efficiency): 1.46 |
| O=C(c1ccccc1F)N1CCCc2ccc(NCc3cnc[nH]3)cc21 [ESC1002081] | – | – | – | – | – | 17β-HSD10 inhibitory activity (in words) (17β-HSD10 [3]): potency was abolished |
| COc1ccc(-c2ccccc2[C@@H]2CCCN2C(=O)c2sccc2C)cc1 [ESC1002089] | 5.40 ± 0.05% | 82 ± 2.23% | 331 nM | 1790 nM | – | fold improvement in activity/potency over hit ESC1002082 (17β-HSD10 [3]; relative to ESC1002082): ~3 fold |
| Cc1ccsc1C(=O)N1CCC[C@H]1c1ccccc1-c1cccnc1 [ESC1002090] | – | – | 1150 nM | – | – | – |
| COc1ccc(-c2ccccc2[C@@H]2CCCN2C(=O)c2sccc2C)cn1 [ESC1002161] | – | – | – | – | – | 17β-HSD10 pIC50 (17β-HSD10 [3]; Supplementary B, Table S1 and text, enantiomers): < 4.7 |
| CC(C)CN(C(=O)C1CCCCC1)c1cccc(N(C)Cc2cnc[nH]2)c1 [ESC1002166] | 4.55 ± 0.02% | 78.9 ± 0.9% | – | 976 nM | 955 nM | – |
| COc1ccc(C(=O)N(CC(C)C)c2cccc(N(C)Cc3cnc[nH]3)c2)cc1 [ESC1002182] | 4.73 ± 0.01% | 85.4 ± 3.61% | – | 1670 nM | 331 nM | – |
| Cc1nc[nH]c1CN(C)c1cccc(N(CC(C)C)C(=O)c2ccccc2F)c1 [ESC1002204] | 5.05 ± 0.01% | 96.7 ± 3.61% | – | 1360 nM | 398 nM | IC50 (17β-HSD10 [3]; Table 5, read-out: mean 17β-HSD10 pIC50 (converted)): 398 nM; k (elimination constant) [5]: 0.11; Heps category ([5]; metabolism category): high; Cl (clearance) ([5]; limits of quantitation 0.5 and 50): >50 mL/min/g liver; half-life ([5]; read-out: T1/2 (half-life)): 6.2 min; EC50 (17β-HSD10 [4]; Table 5, HEK293 17β-HSD10 cells, CHANA assay): 1360 nM |
| CC(C)CN(C(=O)c1ccccc1F)c1cccc(N(C)Cc2ccn[nH]2)c1 [ESC1002205] | 5.84 ± 0.01% | 82.52 ± 0.57% | – | 3130 nM | 891 nM | – |
| COc1ccc(-c2ccccc2C2CCCN2C(=O)c2sccc2C)cc1 (stereo not shown) [ESC1002332] | 3.52 ± 0.01% | 87.7 ± 1.67% | – | 7220 nM | 166 nM | – |
| COc1cccc(-c2ccccc2C2CCCN2C(=O)c2sccc2C)c1 (stereo not shown) [ESC1002338] | 4.64 ± 0.01% | 83 ± 1.25% | – | 1150 nM | – | IC50 (17β-HSD10 [3]; enzyme screening assay, read-out: IC50): 191 nM |
| Cc1ccsc1C(=O)N1CCC[C@H]1c1ccccc1-c1cnn(C)c1 [ESC1002424] | – | – | 933 nM | – | – | LipE (17β-HSD10 [3]): 2.1 |
| COc1cccc(-c2ccccc2[C@H]2CCCN2C(=O)c2ccccc2C)c1 [ESC1002434] | – | – | – | – | – | 17β-HSD10 inhibitory activity (in words) (17β-HSD10 [3]): not tolerated |
| COc1ccc(C(=O)N(CC(C)C)c2cccc(N(C)Cc3c[nH]cn3)c2)c(F)c1 [ESC1002576] | 5.19 ± 0.01% | 79.1 ± 0.99% | – | 599 nM | 245 nM | – |
| COc1cccc(-c2ccccc2C2CCCN2C(=O)c2sccc2Cl)c1 (stereo not shown) [ESC1002606] | 5.09 ± 0.02% | 78 ± 1.09% | – | – | – | – |
| COc1cccc(-c2ccccc2[C@@H]2CCCN2C(=O)c2[nH]ncc2Cl)c1 [ESC1002626] | – | – | 457 nM | – | – | – |
| CC(C)CN(C(=O)c1ccccc1F)c1cccc(NCc2c[nH]cn2)c1 [ESC1002631] | – | – | – | – | 9330 nM | – |
| O=C(c1sccc1Cl)N1CCC[C@H]1c1ccccc1-c1cccc(O)c1 [ESC1002666] | 4.49 ± 0.02% | 79.3 ± 1.03% | 58.9 nM | 138 nM | – | – |
| COc1cccc(-c2ccccc2C2CCCN2Cc2sccc2F)c1 (stereo not shown) [ESC1002695] | – | – | – | – | – | 17β-HSD10 inhibitory activity (in words) (17β-HSD10 [3]): lost all activity |
| O=C(c1sccc1Cl)N1CCCC1c1ccccc1-c1ccc(F)c(O)c1 (stereo not shown) [ESC1002775] | 2.54 ± 0.004% | 81.53 ± 0.56% | 49 nM | 449 nM | – | – |
| O=C(c1sccc1Cl)N1CCCC1c1ccccc1-c1cc(O)cc(F)c1 (stereo not shown) [ESC1002801] | 5.50 ± 0.01% | 82.55 ± 0.62% | 51.3 nM | 50 nM | – | – |
